Structures are written as SMILES.

These results are taken from paper PMC5651568, “Comparative characterization of all cellulosomal cellulases from Clostridium thermocellum reveals high diversity in endoglucanase product formation essential for complex activity” (Biotechnology for Biofuels, 2017).

What all share (assay): TLC product analysis
Type in all cases: biochemical
What all share (details): 60 °C, MOPS buffer, 10 mM CaCl2

One assay has as its target T1, Cbh9A (Acetivibrio thermocellus, UniProt A3DCH2).
T1 construct: gene Cthe_0413; signal peptide removed, dockerin kept, His-tag, E. coli BL21
T1 sequence (A3DCH2 28-1224): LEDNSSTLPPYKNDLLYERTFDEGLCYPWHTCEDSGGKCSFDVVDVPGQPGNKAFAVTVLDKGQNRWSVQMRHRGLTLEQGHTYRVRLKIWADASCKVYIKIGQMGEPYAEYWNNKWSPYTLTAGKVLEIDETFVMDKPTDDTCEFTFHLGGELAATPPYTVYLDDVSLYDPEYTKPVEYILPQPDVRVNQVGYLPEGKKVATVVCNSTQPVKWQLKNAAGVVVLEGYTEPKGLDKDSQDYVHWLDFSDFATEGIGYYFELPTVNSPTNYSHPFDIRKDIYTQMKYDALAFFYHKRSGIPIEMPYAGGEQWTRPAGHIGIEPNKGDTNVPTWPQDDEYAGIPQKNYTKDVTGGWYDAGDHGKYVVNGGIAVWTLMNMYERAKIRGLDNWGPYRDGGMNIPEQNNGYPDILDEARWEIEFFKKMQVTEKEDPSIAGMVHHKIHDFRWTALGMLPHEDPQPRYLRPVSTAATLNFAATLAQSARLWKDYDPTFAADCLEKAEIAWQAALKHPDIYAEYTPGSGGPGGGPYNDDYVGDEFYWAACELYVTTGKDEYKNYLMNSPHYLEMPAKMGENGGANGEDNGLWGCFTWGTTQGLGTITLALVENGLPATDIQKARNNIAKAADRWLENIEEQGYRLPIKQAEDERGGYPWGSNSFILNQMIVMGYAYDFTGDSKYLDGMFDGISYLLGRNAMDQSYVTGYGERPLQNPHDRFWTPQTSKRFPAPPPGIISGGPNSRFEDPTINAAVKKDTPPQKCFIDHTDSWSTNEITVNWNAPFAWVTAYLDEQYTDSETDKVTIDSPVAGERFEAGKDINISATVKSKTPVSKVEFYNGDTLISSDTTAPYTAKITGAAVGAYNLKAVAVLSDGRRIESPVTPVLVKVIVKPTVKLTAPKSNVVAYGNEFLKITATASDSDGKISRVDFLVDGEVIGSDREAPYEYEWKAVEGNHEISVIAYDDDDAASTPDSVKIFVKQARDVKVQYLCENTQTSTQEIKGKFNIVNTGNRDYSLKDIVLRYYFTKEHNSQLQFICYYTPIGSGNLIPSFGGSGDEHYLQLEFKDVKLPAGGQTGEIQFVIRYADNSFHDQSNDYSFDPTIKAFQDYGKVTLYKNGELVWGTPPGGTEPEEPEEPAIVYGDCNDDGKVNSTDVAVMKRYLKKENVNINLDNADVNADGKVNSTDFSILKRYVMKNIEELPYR

The next assay addresses T2, Cel9D (Acetivibrio thermocellus, UniProt A3DDN1).
T2 construct: gene celD; signal peptide removed, Ig-like module and dockerin kept, His-tag, E. coli BL21
T2 sequence (A3DDN1 42-649): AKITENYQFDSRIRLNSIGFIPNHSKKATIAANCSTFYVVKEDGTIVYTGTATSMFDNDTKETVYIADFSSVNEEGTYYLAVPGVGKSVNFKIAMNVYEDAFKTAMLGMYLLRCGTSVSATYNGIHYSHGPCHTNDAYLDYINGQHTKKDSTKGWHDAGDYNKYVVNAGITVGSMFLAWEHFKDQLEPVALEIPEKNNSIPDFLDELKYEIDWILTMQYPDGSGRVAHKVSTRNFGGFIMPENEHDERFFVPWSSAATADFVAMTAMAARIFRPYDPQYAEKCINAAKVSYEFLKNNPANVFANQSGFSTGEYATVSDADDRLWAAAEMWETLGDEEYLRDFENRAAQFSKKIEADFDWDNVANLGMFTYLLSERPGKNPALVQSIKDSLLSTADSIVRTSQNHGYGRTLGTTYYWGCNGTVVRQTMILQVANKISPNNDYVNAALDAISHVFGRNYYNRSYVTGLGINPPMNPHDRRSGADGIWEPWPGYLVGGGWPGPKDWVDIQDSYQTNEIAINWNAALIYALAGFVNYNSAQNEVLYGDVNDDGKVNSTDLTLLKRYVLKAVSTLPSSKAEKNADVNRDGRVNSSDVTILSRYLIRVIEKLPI

The target of another assay is T3, Cel9-44J (Acetivibrio thermocellus, UniProt A3DD30).
T3 construct: gene Cthe_0624; signal peptide removed, GH9 and GH44 modules, dockerin kept, His-tag, codon-optimised synthetic gene, E. coli BL21

In a further assay the target is T4, Cel5-26H (Acetivibrio thermocellus, UniProt P16218).
T4 construct: gene celH; signal peptide removed, GH5 and GH26 modules, dockerin kept, His-tag, E. coli BL21
T4 sequence (P16218 45-900): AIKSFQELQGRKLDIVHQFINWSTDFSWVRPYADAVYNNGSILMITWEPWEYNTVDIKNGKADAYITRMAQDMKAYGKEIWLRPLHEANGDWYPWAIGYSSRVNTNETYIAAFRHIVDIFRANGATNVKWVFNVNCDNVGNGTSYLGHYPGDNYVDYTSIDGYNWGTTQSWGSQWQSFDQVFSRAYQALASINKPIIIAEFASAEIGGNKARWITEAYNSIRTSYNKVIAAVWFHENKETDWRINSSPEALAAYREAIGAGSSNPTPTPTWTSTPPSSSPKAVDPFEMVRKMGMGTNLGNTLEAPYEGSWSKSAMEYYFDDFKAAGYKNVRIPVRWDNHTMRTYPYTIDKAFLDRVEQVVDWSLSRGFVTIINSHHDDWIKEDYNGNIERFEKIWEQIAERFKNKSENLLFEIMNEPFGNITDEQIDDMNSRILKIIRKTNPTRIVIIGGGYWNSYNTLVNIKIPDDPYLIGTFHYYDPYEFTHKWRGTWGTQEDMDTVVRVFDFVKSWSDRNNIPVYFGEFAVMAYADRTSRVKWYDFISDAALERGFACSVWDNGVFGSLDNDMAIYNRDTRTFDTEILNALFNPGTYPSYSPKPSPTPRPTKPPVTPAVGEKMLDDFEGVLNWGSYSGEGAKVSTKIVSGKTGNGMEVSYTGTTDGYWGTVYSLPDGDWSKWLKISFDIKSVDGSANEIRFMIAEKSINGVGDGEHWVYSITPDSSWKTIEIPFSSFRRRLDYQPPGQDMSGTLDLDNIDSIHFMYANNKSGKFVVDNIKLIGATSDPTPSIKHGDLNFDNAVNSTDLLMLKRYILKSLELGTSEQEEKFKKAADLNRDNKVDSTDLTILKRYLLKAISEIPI

A further assay addresses T5, Cel9K (Acetivibrio thermocellus, UniProt A3DCH1).
T5 construct: gene celK; signal peptide removed, dockerin kept, His-tag, codon-optimised synthetic gene, E. coli BL21
T5 sequence (A3DCH1 28-895): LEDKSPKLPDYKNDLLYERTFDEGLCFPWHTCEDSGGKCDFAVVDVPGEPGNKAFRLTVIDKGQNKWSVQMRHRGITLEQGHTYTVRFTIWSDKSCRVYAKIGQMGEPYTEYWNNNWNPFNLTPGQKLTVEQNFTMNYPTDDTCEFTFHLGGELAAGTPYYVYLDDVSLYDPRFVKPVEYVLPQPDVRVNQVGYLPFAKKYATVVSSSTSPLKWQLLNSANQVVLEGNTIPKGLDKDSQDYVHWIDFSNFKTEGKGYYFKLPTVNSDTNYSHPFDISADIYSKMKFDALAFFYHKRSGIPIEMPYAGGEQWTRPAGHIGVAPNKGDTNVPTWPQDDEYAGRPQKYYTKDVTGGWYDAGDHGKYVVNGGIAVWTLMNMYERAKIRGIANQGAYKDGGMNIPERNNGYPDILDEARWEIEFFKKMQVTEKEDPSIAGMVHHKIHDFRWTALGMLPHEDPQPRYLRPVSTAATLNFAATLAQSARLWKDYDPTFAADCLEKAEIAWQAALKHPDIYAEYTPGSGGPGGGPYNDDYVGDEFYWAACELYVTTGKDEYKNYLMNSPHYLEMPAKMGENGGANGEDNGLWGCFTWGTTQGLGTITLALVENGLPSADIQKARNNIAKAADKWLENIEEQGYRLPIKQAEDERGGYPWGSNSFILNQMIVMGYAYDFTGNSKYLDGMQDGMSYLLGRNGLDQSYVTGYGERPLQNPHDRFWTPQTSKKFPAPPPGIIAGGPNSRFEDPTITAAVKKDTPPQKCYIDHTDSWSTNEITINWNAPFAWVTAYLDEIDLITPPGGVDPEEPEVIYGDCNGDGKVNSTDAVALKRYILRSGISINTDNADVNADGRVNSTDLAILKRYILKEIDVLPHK

A further assay deals with T6, Cel9T (Acetivibrio thermocellus, UniProt A3DJ82).
T6 construct: gene Cthe_2812; signal peptide removed, dockerin kept, His-tag, E. coli BL21
T6 sequence (A3DJ82 36-611): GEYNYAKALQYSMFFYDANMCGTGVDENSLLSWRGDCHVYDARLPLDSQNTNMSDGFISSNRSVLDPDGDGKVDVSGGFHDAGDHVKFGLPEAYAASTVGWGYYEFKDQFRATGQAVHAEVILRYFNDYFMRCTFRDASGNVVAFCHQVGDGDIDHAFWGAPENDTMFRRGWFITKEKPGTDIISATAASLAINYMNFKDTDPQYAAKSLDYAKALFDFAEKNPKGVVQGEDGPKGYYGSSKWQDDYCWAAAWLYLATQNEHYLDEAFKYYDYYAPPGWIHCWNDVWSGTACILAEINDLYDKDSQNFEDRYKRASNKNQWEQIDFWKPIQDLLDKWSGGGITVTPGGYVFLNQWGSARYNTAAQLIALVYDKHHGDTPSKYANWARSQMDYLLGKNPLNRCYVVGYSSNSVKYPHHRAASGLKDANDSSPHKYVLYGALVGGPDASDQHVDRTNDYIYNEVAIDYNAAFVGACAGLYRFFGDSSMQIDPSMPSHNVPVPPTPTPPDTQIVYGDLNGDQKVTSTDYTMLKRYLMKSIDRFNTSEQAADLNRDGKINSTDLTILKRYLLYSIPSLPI

T3 sequence (A3DD30 28-1601): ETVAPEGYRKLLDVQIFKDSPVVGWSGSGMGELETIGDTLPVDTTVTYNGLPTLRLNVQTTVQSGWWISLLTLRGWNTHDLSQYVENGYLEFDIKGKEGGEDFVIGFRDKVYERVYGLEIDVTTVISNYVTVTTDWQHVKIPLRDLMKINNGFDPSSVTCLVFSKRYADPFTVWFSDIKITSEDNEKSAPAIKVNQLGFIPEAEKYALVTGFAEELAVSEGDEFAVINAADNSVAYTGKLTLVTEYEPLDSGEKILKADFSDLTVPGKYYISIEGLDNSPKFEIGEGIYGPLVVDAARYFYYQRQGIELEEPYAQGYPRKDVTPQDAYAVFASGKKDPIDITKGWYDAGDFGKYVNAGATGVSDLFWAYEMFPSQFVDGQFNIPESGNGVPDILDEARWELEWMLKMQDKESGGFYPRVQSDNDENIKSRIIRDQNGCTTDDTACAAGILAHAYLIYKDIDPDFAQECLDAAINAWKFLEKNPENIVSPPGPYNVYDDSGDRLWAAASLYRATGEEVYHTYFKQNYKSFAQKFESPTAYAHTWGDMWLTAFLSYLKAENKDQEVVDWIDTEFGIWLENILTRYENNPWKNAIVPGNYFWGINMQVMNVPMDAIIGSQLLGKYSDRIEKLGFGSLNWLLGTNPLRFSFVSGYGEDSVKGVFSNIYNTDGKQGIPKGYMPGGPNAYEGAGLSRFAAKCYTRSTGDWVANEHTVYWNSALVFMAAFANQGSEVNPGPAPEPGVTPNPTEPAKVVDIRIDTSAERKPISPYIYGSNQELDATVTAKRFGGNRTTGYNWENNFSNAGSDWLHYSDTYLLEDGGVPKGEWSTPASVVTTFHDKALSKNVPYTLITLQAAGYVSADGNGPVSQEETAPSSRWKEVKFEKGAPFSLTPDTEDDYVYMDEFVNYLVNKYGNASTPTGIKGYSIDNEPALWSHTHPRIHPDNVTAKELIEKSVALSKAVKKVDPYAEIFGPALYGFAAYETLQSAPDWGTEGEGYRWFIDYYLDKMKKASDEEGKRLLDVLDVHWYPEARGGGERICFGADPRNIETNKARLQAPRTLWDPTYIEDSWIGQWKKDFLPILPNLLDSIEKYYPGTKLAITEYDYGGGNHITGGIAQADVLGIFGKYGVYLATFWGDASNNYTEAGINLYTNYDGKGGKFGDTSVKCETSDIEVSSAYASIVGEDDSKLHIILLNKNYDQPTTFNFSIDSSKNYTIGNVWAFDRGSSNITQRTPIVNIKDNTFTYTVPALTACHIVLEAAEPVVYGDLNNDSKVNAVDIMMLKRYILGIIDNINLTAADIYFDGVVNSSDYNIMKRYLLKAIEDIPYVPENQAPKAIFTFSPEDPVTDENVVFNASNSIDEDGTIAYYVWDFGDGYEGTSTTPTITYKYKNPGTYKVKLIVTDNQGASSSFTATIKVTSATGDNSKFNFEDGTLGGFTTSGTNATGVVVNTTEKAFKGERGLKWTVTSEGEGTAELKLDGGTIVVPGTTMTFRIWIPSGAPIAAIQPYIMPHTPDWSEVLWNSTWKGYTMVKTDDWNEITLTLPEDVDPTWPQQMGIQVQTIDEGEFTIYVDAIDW

As for `OC[C@H]1O[C@@H](O[C@H]2[C@H](O)[C@@H](O)[C@H](O[C@H]3[C@H](O)[C@@H](O)[C@H](O[C@H]4[C@H](O)[C@@H](O)[C@H](O[C@H]5[C@H](O)[C@@H](O)[C@H](O[C@H]6[C@H](O)[C@@H](O)C(O)O[C@@H]6CO)O[C@@H]5CO)O[C@@H]4CO)O[C@@H]3CO)O[C@@H]2CO)[C@H](O)[C@@H](O)[C@@H]1O` (stereo partly drawn) [cellohexaose], the TLC product analysis entry on Cbh9A was “released specifically cellobiose as the only product over time (Cel48S, Cel9K, and Cbh9A)”; on Cel9D, “confirmed by the hydrolysis products from cello-oligosaccharides as substrate”; at Cel9-44J, “characterized by their indiscriminate scission of cello-oligosaccharides”; on Cel5-26H, “characterized by their indiscriminate scission of cello-oligosaccharides”; on Cel9K, “released specifically cellobiose as the only product over time (Cel48S, Cel9K, and Cbh9A)”; on Cel9T, “characterized by their indiscriminate scission of cello-oligosaccharides”.
